Reference: US11111267B2 (priority 2020, dated 2021)
“Also recorded” adds a separate entry of the source. Where two headings read alike, the source gives them in different places.

Legend:
[1] = tested on: A431 xenograft; assay type: in vivo, BALB/c nude mice
Protocol: (§1) NCI-H2122 cells were cultured in RMPI1640 medium, A431 tumor cells cultured in DMEM medium, all the medium were supplemented with 10% heat inactivated fetal bovine serum, all cells used EDTA containing trypsin, passaged twice a week, incubated at 37° C. in an atmosphere of 5% CO2 in air and cultured.
(§2) 110 BALB/c nude mice, female, 6-8 weeks old, 18-22 g in body weight, were purchased from Shanghai Laboratory Animal Center (SLAC, Shanghai, China). The mice were kept in individually ventilated cage (IVC) systems at constant temperature and humidity, with 20.5-24.5° C. for temperature, 40-75% for humidity. With 4 animals in each cage, the size ogf the cage is 325 mm×210 mm×180 mm. The bedding material is corn cob, which is changed twice per week. Animals had free access to irradiation sterilized dry granule food and water during the entire study period. The food and water were changed twice per week. The identification labels for each cage contain the following information: number of animals, sex, strain, and date received treatment, study number, group number, and the starting date of the treatment. Animals were marked by ear coding. The experiments started one week after receiving the animals.
(§3) Each mouse were inoculated subcutaneously at the right flank region with NCI-H2122 tumor cells (5×10^7/ml), NCI-H1703 tumor cells (1×10^8/ml) and A431 tumor cells (5×10^7/ml), respectively in a mixture of phosphate-buffered saline and matrigel for tumor development via a 1 ml syringe. The treatments were started when the mean tumor size reached about 200 (150-250) mm^3.
(§4) To avoid errors between groups, the animals were first grouped by the tumor volumes according to the tumor volume measurements, and then randomly re-assigned to different groups.
(§5) During the study, the care and use of animals were conducted in accordance with the regulations of the Association for Assessment and Accreditation of Laboratory Animal Care (AAALAC). After tumor cell inoculation, the animals were checked daily for morbidity and mortality. At the time of routine monitoring, the animals were checked for any effects of tumor growth and treatments on normal behavior such as mobility, visual estimation of food and water consumption, body weight gain/loss, eye/hair matting and any other abnormal effect.
(§6) After tumor volume reached 3000 mm^3 or average tumor volume reached 2000 mm^3, before experimental animals emaciated or coma, anesthesia and euthanasia will be performed. During the experiment, if the weight loss of experimental animal reaches 20%, administration will be discontinued and experimental animals will be observed until the weight returned to 10% range before restart of the administration. In this experiment, when the mean tumor volume reached 2000 mm^3 or at the end of 59 days after the administration, experimental animals will be anesthesiaed to collect tumor mass which will be weighed and photographed.
(§7) • 8.1 Tumor size was measured twice weekly in two dimensions using a caliper, and the volume was expressed in mm^3 using the formula: V=0.5 a×b^2 where a and b are the long and short diameters of the tumor, respectively. • 8.2 T/C, percent value, T and C were the mean volume of the treated and control groups, respectively, on a given day. • 8.3 T−C, calculated with T as the time (in days) required for the mean tumor size of the treatment group to reach a predetermined size, and C was the time (in days) for the mean tumor size of the control group to reach the same size. • 8.4 (1−((Td−T0)/(Cd−C0)))×100% value (in percent) was an indication of antitumor effectiveness, Td and Cd were the mean tumor volumes of the treated and vehicle control animals on a given day and T0 and C0 were the mean tumor volumes of the treated and vehicle control animals at the start of the experiment. • 8.5 Tumor mass weight was measured at the end of study. 9. Statistical Analysis
(§8) A one-way analysis of variance was performed followed by multiple comparison procedures. […]

[2] = tested on: NCI-H2122 lung cancer xenograft; assay type: in vivo, BALB/c nude mice
Protocol: as §1, §2, §3, §4, §5, §6, §7, §8

[3] = MTD study of jervine; assay type: in vivo, BALB/c nude mice; conditions: 14 days
Protocol: 9 BALB/c nude mice were divided equally into 3 groups. The mice were orally dosed at 50 mg/kg, 80 mg/kg and 150 mg/kg by groups. […] It was initially determined that the MTD is higher than 80 mg/kg for BALB/c nude mice.

[4] = Pharmacokinetic study of jervine in mice; assay type: in vivo; conditions: CD-1 mice, PO 10 mg/Kg
Protocol: Orally dosed: A total of 3 male experimental CD-1 mice, approximately 8 weeks of age at receipt was administered jervine via oral gavage at 10 mg/kg. Blood samples (300 μL) were collected via cardiac puncture predose and at 2 minute, 5 minute, 15 minute, 0.5 hour, 1 hour, 2 hour, 4 hour, 8 hour, 24 hours postdose. Plasma was made form the blood samples in order to measure the concentration of jervine.

[5] = tested on: Hedgehog signaling pathway; experiment: Gli luciferase reporter assay in Gli Reporter-NIH3T3 cells (mShh stimulated); assay type: cell-based; conditions: mShh 1 μg/ml, 27 hours, read-out: IC50 for inhibition of the Hedgehog signaling pathway
Protocol: Hedgehog signaling pathway Gli Reporter-NIH3T3 cells were cultured in DMEM medium with 10% Calf serum, 1% Penn-strep, 500 μg/ml of Geneticin.
To perform the Gli luciferase reporter assay, Gli Reporter—NIH3T3 cells were seeded at 25,000 cells per well into white clear-bottom 96-well microplate in 100 μl of growth medium. Cells were incubated at 37° C. and 5% CO2 for overnight. Next day remove the medium from wells and add 45 μl of diluted inhibitor in assay medium (Opti-MEM Reduced Serum Medium+0.5% calf serum+1% non-essential amino acids+1 mM Na-pyruvate+10 mM HEPES+1% Pen/Strep) per well. Incubate cells at 37° C. in a CO2 incubator for 2 hours. Then add 5 μl of diluted mShh in assay medium to wells (final [mShh]=1 μg/ml). Add […] of assay medium to cell-free control wells. Cells were treated for 27 hours. […] Luminescence was measured using a luminometer (BioTek Synergy™ 2 microplate reader)
Reporter assays in triplicate were performed at each concentration. The luminescence intensity data were analyzed using the computer software, Graphpad Prism. In the absence of the compound, the luminescence intensity (Lt) in each data set was defined as 100%. In the absence of cells, the luminescence intensity (Lb) in each data set was defined as 0%. […]

[6] = tested on: BXPC-3 human pancreatic carcinoma xenograft; experiment: BXPC-3 xenograft tumor model, subcutaneous; assay type: in vivo, BALB/c nude mice
Protocol: as §7
A one-way analysis of variance was performed followed by multiple comparison procedures. All data was analyzed using SPSS 18.0. *p<0.05 or **P<0.01 are generally considered statistically significant when compared with vehicle group.
BXPC-3 tumor cells cultured in RMPI1640 medium supplemented with 10% heat inactivated fetal bovine serum, all cells used EDTA containing trypsin, passaged twice a week, incubated at 37° C. in an atmosphere of 5% CO2 in air and cultured.
BALB/c nude mice, female, 6-8 weeks old, 18-22 g in body weight, were purchased from Shanghai Laboratory Animal Center (SLAC, Shanghai, China).
Each mouse was inoculated subcutaneously at the right flank region with BXPC-3 tumor cells (5×10^7) in 0.1 ml of phosphate-buffered saline with matrigel via a 1 ml syringe for tumor development. The treatments were started when the mean tumor size reaches approximately 200 (150-250) mm^3 at 9 days after inoculation.
Randomized grouping, observations, aseptic, data processing, measurement and statistical analysis are as described in Example 3.

CC1=C2C(=O)[C@H]3[C@@H](CC=C4C[C@@H](O)CC[C@@]43C)[C@@H]2CC[C@]12O[C@@H]1C[C@H](C)CN[C@H]1[C@H]2C [jervine]
T/C value ([1]; A431, 40 mg/kg p.o. QD × 21 days): 0.52 | T/C value ([1]; A431, 60 mg/kg p.o. QD × 21 days): 0.80 | T/C value ([1]; A431, 80 mg/kg p.o. QD × 21 days): 0.82 | T/C value ([2]; NCI-H2122, 40 mg/kg p.o. QD × 21 days): 0.79 | T/C value ([2]; NCI-H2122, 60 mg/kg p.o. QD × 21 days): 0.701 | T/C value ([2]; NCI-H2122, 80 mg/kg p.o. QD × 21 days): 0.594 | mortality ([3]; 50 mg/kg oral): no animal dead | general condition of the mice ([3]; 80 mg/kg oral gavage): all mice were in good condition | weight loss ([3]; 80 mg/kg oral gavage): no significant weight loss | mortality ([3]; 80 mg/kg oral): no animal die | mortality ([3]; 80 mg/kg oral, listed as Jervine): no animal dead | mortality ([3]; 150 mg/kg oral): Two mice in the 150 mg/kg treatment group were dead | F (bioavailability) [4]: 41.2% | IC50 [5]: 50 nM | T/C value ([6]; BXPC-3, 20 mg/kg iv QD × 21 days): 25.8% | T/C value ([6]; BXPC-3, 40 mg/kg iv QD × 21 days): 59.1% | T/C value ([6]; BXPC-3, 80 mg/kg iv QD × 21 days): 54.2% | tumor growth inhibition (in words) ([6]; BXPC-3 xenograft): significantly inhibit the growth of these three tumors; also recorded: effectively inhibit the tumor growth | side effects / weight loss of the mice ([6]; BXPC-3 xenograft, during administration): no obvious side effects such as weight lose was observed; also recorded: no significant of weight lose
